Here are results for ten compounds from article PMC6982741, “Design, Synthesis and Study of Nitrogen Monoxide Donors as Potent Hypolipidaemic and Anti-Inflammatory Agents” (Molecules, 2019).

Assay [1] deals with carrageenan-induced rat paw oedema. As to the kind of experiment: Carrageenan-induced rat paw oedema. The format is in vivo, Wistar rats. The conditions noted are these: 0.15 mmol/kg i.p., oedema after 3.5 h, vs carrageenan-only controls; for inhibition in vivo at 150 µmol/kg: Rattus norvegicus, ip, read-out: % Oedema Reduction. The protocol:
The carrageenan-induced paw oedema is a well-known and widely used model of acute inflammation. The response to carrageenan inflammation may be divided into three phases. In the first phase (after 1.5 h), histamine and serotonin are released, the second phase (1.5–2.5 h after carrageenan administration) is mediated by kinins, whereas, in the third phase, more than two hours post administration, neutrophil infiltration, prostaglandin production and release of pro-inflammatory cytokines are involved. In this work, oedema was measured 3.5 h post injection.
κ-Carrageenan and lipoxygenase type I-B from soybean were purchased from Sigma (St. Louis, MO, U.S.A.).
The tested compounds (in water with a few drops of Tween 80) were given i.p. (0.15 mmol/kg) to rats, just after the i.d. injection of 0.1 mL of an aqueous carrageenan solution (1% w/v) in the hind paw of rats. The produced oedema, after 3.5 h, was estimated as paw weight increase.

A further assay has as its system hyperlipidaemic rats. Put plainly: Triton WR1339 (tyloxapol) induced hyperlipidaemia in rats. The format is in vivo, Wistar rats. The note with it: tyloxapol 200 mg/kg i.p.; for inhibition in vivo at 300 µmol/kg / inhibition in vivo at 150 µmol/kg / inhibition in vivo at 500 µmol/kg: Rattus norvegicus, ip, 24 h; for inhibition in vivo at 300 µmol/kg: 300 μmol/kg i.p.; for inhibition in vivo at 500 µmol/kg: 500 μmol/kg i.p. An excerpt:
The pleiotropic effects of statins, used as hypolipidaemic drugs, include antioxidant ability and direct increase of eNOS activity, in addition to inhibition of 3-hydroxy-3-methylglutaryl coenzyme A (HMG-CoA) reductase. […] The systemic administration of Triton-WR1339 (tyloxapol) to rats induces a biphasic elevation of plasma cholesterol, atherogenic VLDL cholesterol and LDL cholesterol, as well as triglyceride levels. […] Agents shown to be active in phase I are considered to interfere with cholesterol biosynthesis.
κ-Carrageenan and lipoxygenase type I-B from soybean were purchased from Sigma (St. Louis, MO, U.S.A.). For the in vivo experiments, Wistar rats (180–220 g, 3–4 months old) were kept in the Centre of the School of Veterinary Medicine (EL54 BIO42), Aristotelian University of Thessaloniki, which is registered by the official state veterinary authorities (presidential degree 56/2013, in harmonization with the European Directive 2010/63/EEC). The experimental protocols were approved by the Animal Ethics Committee of the Prefecture of Central Macedonia (no. 270079/2500).
Hyperlipidaemia was induced by the i.p. administration of Triton WR 1339 (200 mg/kg) to rats. […] Blood was taken from the aorta after 24 h, for the determination of plasma total cholesterol, LDL-cholesterol and triglyceride concentrations, using commercial kits.

The nature of assay [2]: In vitro nitrogen monoxide release (Griess reagent). The procedure: Due to their poor aqueous solubility, compounds 1, 3-7 and 9 were dissolved in 7/3 (v/v) mixture of DMSO/water at various concentrations and incubated overnight at room temperature in the presence of cadmium. S-nitroso-N-acetylpenicillamine (SNAP) was dissolved either in DMSO/water 7/3 or in water and treated as above.
Aliquots were taken from each sample and added to an equal volume of N-naphthylaminoethylamine (0.2%) and sulfanilamide (2%) solution in 3 N hydrochloric acid (Griess reagent). Appropriate sodium nitrite solutions in the same DMSO/water mixture were used for the construction of the standard curve and values were identical to those obtained with aqueous solutions. Nitric oxide release was estimated spectrophotometrically (540 nm).

A further assay concerns the target T1, soybean lipoxygenase 1-B (Glycine max, UniProt P08170).
T1 construct: purchased Sigma (St. Louis, MO, U.S.A.)
T1 sequence (P08170 1-839): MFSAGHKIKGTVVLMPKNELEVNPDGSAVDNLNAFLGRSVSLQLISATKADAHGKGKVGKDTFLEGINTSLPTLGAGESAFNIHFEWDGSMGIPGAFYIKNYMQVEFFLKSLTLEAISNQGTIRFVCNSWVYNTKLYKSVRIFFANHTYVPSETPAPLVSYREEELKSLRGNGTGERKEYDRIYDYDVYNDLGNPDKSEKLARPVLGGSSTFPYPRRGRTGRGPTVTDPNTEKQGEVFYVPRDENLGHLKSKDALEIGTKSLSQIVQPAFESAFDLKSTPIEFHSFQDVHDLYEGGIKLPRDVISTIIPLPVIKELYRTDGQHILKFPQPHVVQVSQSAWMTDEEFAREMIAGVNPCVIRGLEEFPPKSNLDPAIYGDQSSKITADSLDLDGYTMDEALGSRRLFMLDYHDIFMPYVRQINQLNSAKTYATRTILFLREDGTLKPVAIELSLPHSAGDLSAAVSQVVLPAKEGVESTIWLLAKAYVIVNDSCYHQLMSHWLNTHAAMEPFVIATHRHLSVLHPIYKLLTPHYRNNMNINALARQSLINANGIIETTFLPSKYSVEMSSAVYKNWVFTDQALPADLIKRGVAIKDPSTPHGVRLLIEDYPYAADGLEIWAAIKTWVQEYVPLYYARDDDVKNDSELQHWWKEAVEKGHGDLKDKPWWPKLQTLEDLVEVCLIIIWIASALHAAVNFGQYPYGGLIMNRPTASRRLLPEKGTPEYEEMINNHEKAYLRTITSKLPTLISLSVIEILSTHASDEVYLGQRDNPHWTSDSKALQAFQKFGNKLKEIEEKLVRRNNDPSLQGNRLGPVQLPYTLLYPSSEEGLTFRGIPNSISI
Put plainly: In vitro soybean lipoxygenase inhibition, linoleate as substrate. It is filed as biochemical. The note with it: sodium linoleate 100 μM; after 7 min of incubation; pH 9.0, 28 °C. The protocol:
The reaction mixture contained the examined compounds (in absolute ethanol, 1–300 μM), soybean lipoxygenase (in saline, 250 u/mL) and sodium linoleate (100 μM), in Tris–HCl buffer, pH 9.0. The reaction was monitored for 7 min at 28 °C, recording the absorbance at 234 nm. […]

Where [3] appears, read: read-out: % Reduction LDL-C (LDL cholesterol).
Where [4] appears, read: read-out: % Reduction TC (total cholesterol).
Setting [5] is: read-out: % Reduction TG (triglycerides).
The mark [6] stands for this setting: 150 μmol/kg i.p., plasma after 24 h, read-out: % Reduction LDL-C (LDL cholesterol).
Setting [7] is: 150 μmol/kg i.p., plasma after 24 h, read-out: % Reduction TC (total cholesterol).
Setting [8] is: 150 μmol/kg i.p., plasma after 24 h, read-out: % Reduction TG (triglycerides).
Where [9] appears, read: compound 31.25 μM, DMSO/water 7/3, overnight, cadmium.
The mark [10] stands for this setting: compound 62.5 μM, DMSO/water 7/3, overnight, cadmium.
[11] abbreviates: compound 125 μM, DMSO/water 7/3, overnight, cadmium.
The mark [12] stands for this setting: compound 250 μM, DMSO/water 7/3, overnight, cadmium.
Where [13] appears, read: compound 500 μM, DMSO/water 7/3, overnight, cadmium.

Read-outs that look alike come from different tables or passages of the source. Marks after values point to notes of the source that are not given here.

With `CC(C)Cc1ccc(C(C)C(=O)O)cc1` (centres unmarked) [Ibuprofen, reference compound], the inhibition in vivo at 150 µmol/kg in assay [1] came to 36%. Moreover, the inhibition in vivo at 300 µmol/kg came to 41.6% with hyperlipidaemic rats (setting [3]), 41% with hyperlipidaemic rats (setting [4]) and 38% in the assay with hyperlipidaemic rats (setting [5]).

In the case of “S-nitroso-N-acetylpenicillamine [SNAP, reference compound]”, the NO Release in assay [2] (100 μM compound, in water) stood at 56.7 μΜ; in assay [2] (per 100 μM compound, DMSO/water 7/3), 56.3 μΜ.

On to `CC(C)Cc1ccc(C(C)C(=O)OCCc2ccc([N+](=O)[O-])cc2)cc1` (racemic) [Compound 2, (±)-4-Nitrophenethyl 2-(4-isobutylphenyl)propanoate], for which, in assay [1], the inhibition in vivo at 150 µmol/kg is 53%. Further, the IC50 (in general, the concentration that inhibits the measured activity by half) on soybean lipoxygenase 1-B turned out to be 24 µM.

On to `CC(C(=O)OCCO[N+](=O)[O-])c1cccc(C(=O)c2ccccc2)c1` (racemic) [Compound 5, (±)-2-(Nitrooxy)ethyl 2-(3-benzoylphenyl)propanoate], for which the inhibition in vivo at 150 µmol/kg in assay [1] was determined as 75%; in the assay on hyperlipidaemic rats (setting [6]) it was 57.8%; in the assay with hyperlipidaemic rats (setting [7]), 46.6%; in the assay with hyperlipidaemic rats (setting [8]), 40.2%. Besides, the IC50 on soybean lipoxygenase 1-B turned out to be 86 µM. For the same compound, the “NO Release” value in assay [2] (setting [9]) was found to be 4 μΜ; in assay [2] (setting [10]) it was 11 μΜ; in assay [2] (setting [11]), 26 μΜ; in assay [2] (setting [12]), 57 μΜ; in assay [2] (setting [13]) it was 100 μΜ.

On to `CCC(C)(C)C(=O)O[C@H]1C[C@@H](C)C=C2C=C[C@H](C)[C@H](CC[C@@H]3C[C@@H](O)CC(=O)O3)[C@H]21` [Simvastatin, reference compound], for which, in the assay with hyperlipidaemic rats (150 μmol/kg i.p., plasma after 24 h), the “% Reduction TG (triglycerides)” value is “no effect”. In addition, the inhibition in vivo at 150 µmol/kg with hyperlipidaemic rats (setting [6]) was determined as 70%.

With `CC(C)Cc1ccc(C(C)C(=O)OCCO[N+](=O)[O-])cc1` (racemic) [Compound 1, (±)-2-(Nitrooxy)ethyl 2-(4-isobutylphenyl)propanoate], the inhibition in vivo at 150 µmol/kg was 76% in assay [1], 80% with hyperlipidaemic rats (setting [6]), 62.2% in the assay with hyperlipidaemic rats (setting [7]) and 30.1% in the assay on hyperlipidaemic rats (setting [8]). Moreover, the IC50 against soybean lipoxygenase 1-B worked out at 46 µM. Besides, the “NO Release” value in assay [2] (setting [9]) is on record as 7 μΜ; in assay [2] (setting [10]) it was 17 μΜ; in assay [2] (setting [11]), 40 μΜ; in assay [2] (setting [12]), 82 μΜ; in assay [2] (setting [13]), 116 μΜ.

As for `O=C(/C=C/c1ccccc1)OCCO[N+](=O)[O-]` [Compound 6, (E)-2-(Nitrooxy)ethyl cinnamate], the inhibition in vivo at 150 µmol/kg in assay [1] was determined as 61%; in the assay with hyperlipidaemic rats (setting [6]), 74.8%; in the assay on hyperlipidaemic rats (setting [7]) it was 70.9%; with hyperlipidaemic rats (setting [8]), 54.4%. On soybean lipoxygenase 1-B, this compound returned an IC50 of 220 µM. Besides, the “NO Release” value in assay [2] (setting [9]) stood at 5 μΜ; in assay [2] (setting [10]), 11 μΜ; in assay [2] (setting [11]), 22 μΜ; in assay [2] (setting [12]), 51 μΜ; in assay [2] (setting [13]) it was 98 μΜ.

For `COc1ccc2c(c1)c(CC(=O)O)c(C)n2C(=O)c1ccc(Cl)cc1` [Indomethacin, reference compound], in assay [1], the inhibition in vivo at 150 µmol/kg worked out at 42%.

As to `COc1ccc2cc(C(C)C(=O)OCCO[N+](=O)[O-])ccc2c1` (single isomer, unassigned; (+)) [Compound 4, (+)-2-(Nitrooxy)ethyl 2-(6-methoxynaphthalen-2-yl)propanoate], the “% Oedema Reduction” value in assay [1] was 70 ** %. The inhibition in vivo at 150 µmol/kg in assay [1] was 70%; in the assay with hyperlipidaemic rats (setting [6]), 84.6%; with hyperlipidaemic rats (setting [7]), 80%; with hyperlipidaemic rats (setting [8]), 38.9%. The compound further registered an IC50 at soybean lipoxygenase 1-B of more than 300 µM. In addition, the “NO Release” value is reported as 2.5 μΜ in assay [2] (setting [9]); 7 μΜ in assay [2] (setting [10]); 17 μΜ in assay [2] (setting [11]); 37 μΜ in assay [2] (setting [12]); 73 μΜ in assay [2] (setting [13]).

Consider `COc1ccc2cc([C@H](C)C(=O)O)ccc2c1` [Naproxen, reference compound], for which, in assay [1], the inhibition in vivo at 150 µmol/kg came out at 11%. In addition, the inhibition in vivo at 500 µmol/kg in the assay with hyperlipidaemic rats (setting [3]) amounted to 25.5%; with hyperlipidaemic rats (setting [4]), 53%; in the assay on hyperlipidaemic rats (setting [5]), 43.5%.
